In patent US20150376099A1, “New 3,3',5,5'-Tetraisopropyl-4,4'-Diphenol Crystal Form And Preparation Method Thereof” (XI' AN LIBANG PHARMACEUTICAL CO., LTD., priority 2013, published 2015):

What was measured:
brain = conditions: cited from earlier work
[1] = compared with propofol; cited from earlier work
GABA = conditions: cited from earlier work
NMDA receptors = conditions: cited from earlier work
[2] = test system: kainate-induced excitotoxicity; conditions: cited from earlier work
slow Ca^2+ channel = conditions: cited from earlier work
GAGA receptor = conditions: cited from earlier work
[3] = Stability of crystal forms under strong light; type: physicochemical; conditions: light stable box, illumination of 4500lux, 7 days
Text: (§1) As compared with the solvate, the anhydrate and hydrate are more useful as pharmaceutical crystal forms. The relative stability of the crystal form is an important indicator to be investigated in the research of drug polymorph, and the stability under high temperature, high humidity, strong light, and in water is investigated for the crystal forms I and II.
The crystal forms I and II prepared in Example 6 and 15 were respectively placed in a light stable box with illumination of 4500lux for 7 days and then characterized, and the result was shown in Table 4.

[4] = Stability of crystal forms under high humidity; type: physicochemical
Description: as §1
The crystal forms I and II prepared in Example 6 and 15 were respectively placed in a constant temperature and humidity chamber at 80° C. and 75% RH for 7 days and then characterized, and the result was shown in Table 4.

[5] = Stability of crystal forms suspended in water; type: physicochemical; conditions: suspended in water at 25° C. for 7 days
Description: as §1
The crystal forms I and II prepared in Example 6 and 15 were placed in water at 25° C. and suspended for 7 days and then characterized, and the result was shown in Table 4.

[6] = Stability of crystal forms under high temperature; type: physicochemical; conditions: ventilated oven at 80° C. for 7 days, then characterized
Description: as §1
The crystal forms I and II prepared in Example 6 and 15 were respectively placed in a ventilated oven at 80° C. for 7 days and then characterized, and the result was shown in Table 4.

## CC(C)c1cc(-c2cc(C(C)C)c(O)c(C(C)C)c2)cc(C(C)C)c1O [3,3′,5,5′-tetraisopropyl-4,4′-diphenol]
brain
  Protective effect of brain: strong protective effect of brain
[1]
  Antioxidant effect: significantly stronger than propofol
GABA
  GABA agonistic effect: GABA agonistic effect
NMDA receptors
  Antagonism of NMDA receptors: could antagonize NMDA receptors
[2]
  Effect on kainate-induced excitotoxicity: protective effect
Slow Ca^2+ channel
  Ca^2+ influx in the slow Ca^2+ channel: regulate Ca^2+ influx
GAGA receptor
  Affinity for the GAGA receptor: strong affinity

## CC(C)c1cc(-c2cc(C(C)C)c(O)c(C(C)C)c2)cc(C(C)C)c1O [crystal form I, 3,3′,5,5′-tetraisopropyl-4,4′-diphenol]
[3]
  Crystal form found after Light: good stability

## CC(C)c1cc(-c2cc(C(C)C)c(O)c(C(C)C)c2)cc(C(C)C)c1O [crystal form II, 3,3′,5,5′-tetraisopropyl-4,4′-diphenol]
[4]; 80° C. and 75% RH for 7 days (as printed in text)
  Stability under high humidity conditions: tendency of converting to the crystal form I
[4]; constant temperature and humidity chamber, 40° C., 75% RH, 7 days
  Crystal form found after High humidity (40° C., 75% RH): I (few), II
[5]
  Crystal form found after Water: tendency of converting to the crystal form I
[5]; listed as II
  Crystal form found after Water: I (few), II
[6]
  Crystal form found after High temperature (80° C.): tendency of converting to the crystal form I
[6]; listed as II
  Crystal form found after High temperature (80° C.): I, II
